Eleven molecules from PubChem BioAssay AID258 (DTP/NCI, 2004) can be followed below.

“And” between values parts separate entries of the source, which are not always exact repeats. Identical values can stand only once. Inconclusive results and toxic doses are left out.

The subject of this test is CD2F1 mice, L1210 leukemia sc, survival T/C. Briefly: NCI In Vivo Anticancer Drug Screen. Data for tumor model L1210 Leukemia (subcutaneous) in CD2F1 (CDF1) mice. The settings on record: endpoint: median survival time, higher = longer survival. The procedure, abridged: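 Compound given to mice bearing transplantable tumor. Survival or tumor size then recorded. Result expressed relative to vehicle-dosed control group as T/C.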

Where [1] appears, read: dose: 23.0 mg/kg/injection, schedule: Q01DX Z (sc), vehicle: methylcellulose (MC).
[2] abbreviates: dose: 39.0 mg/kg/injection, schedule: Q01DX Z (sc), vehicle: methylcellulose (MC).
[3] abbreviates: dose: 65.0 mg/kg/injection, schedule: Q01DX Z (sc), vehicle: methylcellulose (MC).
The mark [4] stands for this setting: dose: 108.0 mg/kg/injection, schedule: Q01DX Z (sc), vehicle: methylcellulose (MC).

Consider `CC(=O)[C@H]1CC[C@H]2[C@@H]3C[C@H](C)C4=CC(=O)CC[C@]4(C)[C@H]3C(=O)C[C@]12C`, for which the T/C by setting is: (dose: 20.0 mg/kg/injection, schedule: Q01DX009 (ip), vehicle: saline with Tween-80) 94 % of control; (dose: 20.0 mg/kg/injection, schedule: Q01DX009 (sc), vehicle: saline with Tween-80) 97 % of control; (dose: 40.0 mg/kg/injection, schedule: Q01DX009 (ip), vehicle: saline with Tween-80) 93 % of control; (dose: 40.0 mg/kg/injection, schedule: Q01DX009 (sc), vehicle: saline with Tween-80) 98 % of control; (dose: 80.0 mg/kg/injection, schedule: Q01DX009 (ip), vehicle: saline with Tween-80) 93 % of control; (dose: 80.0 mg/kg/injection, schedule: Q01DX009 (sc), vehicle: saline with Tween-80) 101 % of control. Further, the T/C runs as follows: (dose: 160.0 mg/kg/injection, schedule: Q01DX009 (ip), vehicle: saline with Tween-80) 93 % of control; (dose: 160.0 mg/kg/injection, schedule: Q01DX009 (sc), vehicle: saline with Tween-80) 98 % of control; (dose: 320.0 mg/kg/injection, schedule: Q01DX009 (ip), vehicle: saline with Tween-80) 96 % of control; (dose: 320.0 mg/kg/injection, schedule: Q01DX009 (sc), vehicle: saline with Tween-80) 105 % of control; (dose: 640.0 mg/kg/injection, schedule: Q01DX009 (sc), vehicle: saline with Tween-80) 109 % of control.

Take `CC(=O)Nc1ccc2nc3ccc(NC(C)=O)cc3[n+](-c3ccccc3)c2c1`: the T/C is, setting by setting: (dose: 8.4 mg/kg/injection, schedule: Q01DX Z (ip), vehicle: saline) 90 % of control; (dose: 14.0 mg/kg/injection, schedule: Q01DX Z (ip), vehicle: saline) 95 % of control; (dose: 14.0 mg/kg/injection, schedule: Q01DX Z (sc), vehicle: saline) 100 % of control; (dose: 23.0 mg/kg/injection, schedule: Q01DX Z (ip), vehicle: saline) 90 % of control; (dose: 23.0 mg/kg/injection, schedule: Q01DX Z (sc), vehicle: saline) 100 % of control; (dose: 39.0 mg/kg/injection, schedule: Q01DX Z (ip), vehicle: saline) 100 % of control. For the same molecule, the T/C by setting is: (dose: 39.0 mg/kg/injection, schedule: Q01DX Z (sc), vehicle: saline) 100 % of control; (dose: 65.0 mg/kg/injection, schedule: Q01DX Z (ip), vehicle: saline) 100 % of control; (dose: 65.0 mg/kg/injection, schedule: Q01DX Z (sc), vehicle: saline) 105 % of control; (dose: 108.0 mg/kg/injection, schedule: Q01DX Z (ip), vehicle: saline) 100 % of control; (dose: 108.0 mg/kg/injection, schedule: Q01DX Z (sc), vehicle: saline) 100 % of control; (dose: 180.0 mg/kg/injection, schedule: Q01DX Z (sc), vehicle: saline) 110 % of control.

With `ONc1ncnc2nc[nH]c12`, the T/C reads like this: (dose: 50.0 mg/kg/injection, schedule: Q01DX Z (sc), vehicle: steriod suspending solution) 112 % of control; (dose: 100.0 mg/kg/injection, schedule: Q01DX Z (sc), vehicle: steriod suspending solution) 118 % of control; (dose: 400.0 mg/kg/injection, schedule: Q01DX Z (sc), vehicle: steriod suspending solution) 168 % of control.

With `Cc1ccc(NCCN(C)C)c2c(=O)c3cc(O)ccc3sc12`, the T/C reads like this: (dose: 12.5 mg/kg/injection, schedule: Q01DX009 (ip), vehicle: Klucel (hydroxypropylcellulose) (HPC)) 110 % of control and 112 % of control; (dose: 25.0 mg/kg/injection, schedule: Q01DX009 (ip), vehicle: Klucel (hydroxypropylcellulose) (HPC)) 112 % of control and 117 % of control; (dose: 50.0 mg/kg/injection, schedule: Q01DX009 (ip), vehicle: Klucel (hydroxypropylcellulose) (HPC)) 165 % of control.

Take `CSc1nc2[nH]cnc(=S)c2[nH]1`: the T/C is 90 % of control under setting [1]; 100 % of control under setting [2]; 100 % of control under setting [3]; 100 % of control under setting [4]; 100 % of control (dose: 180.0 mg/kg/injection, schedule: Q01DX Z (sc), vehicle: methylcellulose (MC)); 100 % of control (dose: 300.0 mg/kg/injection, schedule: Q01DX Z (sc), vehicle: methylcellulose (MC)).

In the case of `COc1cccc2c1C(=O)c1c(O)c3c(c(O)c1C2=O)C[C@@](O)(C(=O)CO)C[C@@H]3OC1CC(OC(C)=O)C(OC(C)=O)C(C)O1` (some centres undefined), the T/C reads like this: (dose: 1.56 mg/kg/injection, schedule: Q01DX009 (ip), vehicle: distilled water + Tween-80) 106 % of control; (dose: 1.57 mg/kg/injection, schedule: Q01DX009 (ip), vehicle: distilled water + Tween-80) 105 % of control; (dose: 3.13 mg/kg/injection, schedule: Q01DX009 (ip), vehicle: distilled water + Tween-80) 105 % of control and 114 % of control; (dose: 12.5 mg/kg/injection, schedule: Q01DX009 (ip), vehicle: distilled water + Tween-80) 182 % of control and 195 % of control.

`COc1cccc2c1C(=O)c1c(O)c3c(c(O)c1C2=O)CC(O)(C(=O)CO)CC3OC1CC(N)C(O)C(C)O1` (centres undefined): the T/C runs as follows: (dose: 2.9 mg/kg/injection, schedule: Q01DX009 (ip), vehicle: saline) 104 % of control; (dose: 5.8 mg/kg/injection, schedule: Q01DX009 (ip), vehicle: saline) 105 % of control; (dose: 11.7 mg/kg/injection, schedule: Q01DX009 (ip), vehicle: saline) 106 % of control; (dose: 23.4 mg/kg/injection, schedule: Q01DX009 (ip), vehicle: saline) 115 % of control; (dose: 46.8 mg/kg/injection, schedule: Q01DX009 (ip), vehicle: saline) 111 % of control.

Consider `c1ccc(CNc2ncnc3[nH]ncc23)cc1`, for which the T/C (dose: 8.4 mg/kg/injection, schedule: Q01DX Z (sc), vehicle: methylcellulose (MC)) is 105 % of control; the T/C (dose: 14.0 mg/kg/injection, schedule: Q01DX Z (sc), vehicle: methylcellulose (MC)) is 100 % of control; the T/C under setting [1] is 100 % of control; the T/C under setting [2] was 100 % of control; the T/C under setting [3] is 111 % of control; the T/C under setting [4] was 122 % of control.

Take `N[C@H](C(=O)O)[C@@H]1CC(Cl)=NO1`: the T/C (dose: 2.0 mg/kg/injection, schedule: Q01DX009 (sc), vehicle: saline) was 116 % of control.

Consider `CN(N=O)C(=O)N[C@@H](C=O)[C@@H](O)[C@H](O)[C@H](O)CO`, for which the T/C was 110 % of control (dose: 12.5 mg/kg/injection, schedule: Q01DX009 (ip), vehicle: other); 104 % of control and 109 % of control (dose: 12.5 mg/kg/injection, schedule: Q01DX009 (sc), vehicle: other); 124 % of control (dose: 25.0 mg/kg/injection, schedule: Q01DX009 (ip), vehicle: other); 106 % of control and 122 % of control (dose: 25.0 mg/kg/injection, schedule: Q01DX009 (sc), vehicle: other); 109 % of control (dose: 50.0 mg/kg/injection, schedule: Q01DX009 (sc), vehicle: other); 121 % of control (dose: 100.0 mg/kg/injection, schedule: Q01DX009 (ip), vehicle: other). The T/C was 115 % of control (dose: 100.0 mg/kg/injection, schedule: Q01DX009 (sc), vehicle: other) and 111 % of control (dose: 200.0 mg/kg/injection, schedule: Q01DX009 (sc), vehicle: other).

For the molecule `CSC1SCC2C(=O)N(C)C(C(C)C)C(=O)OCC(NC(=O)c3cnc4ccccc4n3)C(=O)NC(C)C(=O)N(C)C1C(=O)N(C)C(C(C)C)C(=O)OCC(NC(=O)c1cnc3ccccc3n1)C(=O)NC(C)C(=O)N2C` (centres undefined), the T/C reads like this: (dose: 7.5 micrograms/kg/injection, schedule: Q01DX009 (ip), vehicle: Klucel (hydroxypropylcellulose) (HPC)) 98 % of control; (dose: 15.0 micrograms/kg/injection, schedule: Q01DX009 (ip), vehicle: Klucel (hydroxypropylcellulose) (HPC)) 97 % of control; (dose: 30.0 micrograms/kg/injection, schedule: Q01DX009 (ip), vehicle: Klucel (hydroxypropylcellulose) (HPC)) 96 % of control; (dose: 60.0 micrograms/kg/injection, schedule: Q01DX009 (ip), vehicle: Klucel (hydroxypropylcellulose) (HPC)) 100 % of control; (dose: 120.0 micrograms/kg/injection, schedule: Q01DX009 (ip), vehicle: Klucel (hydroxypropylcellulose) (HPC)) 102 % of control.
